Measured values: patent US20120101046A1, “PROPHYLACTIC OR THERAPEUTIC AGENT FOR RETINAL DISEASE AND METHOD FOR PROPHYLAXIS OR THERAPY OF RETINAL DISEASE USING JNK (C-JUN AMINO-TERMINAL KINASE) - INHIBITORY PEPTIDE, AND USE OF THE PEPTIDE” (priority 2009, published 2012)
Read-outs that look alike come from different tables or passages of the source. Non-standard residues stand in square brackets, D forms with d. Residues, ends and D or L forms follow the SMILES beside them.

Legend:
[1] = test system: tunicamycin-induced rat photoreceptor cell damage model; settings: rats, intravitreal, 2.7 μg/eye, 7 days after tunicamycin administration
Description: Such a model was thus used to evaluate the usefulness of the JNK-inhibitory peptide of the present invention against photoreceptor cell damage.
General anesthesia was induced in rats by intramuscular administration of 1 mL/kg of a mixture (7:1) of a 5% (W/V) ketamine hydrochloride injection solution and a 2% xylazine hydrochloride injection solution. A 0.5% (W/V) tropicamide-0.5% phenylephrine hydrochloride ophthalmic solution was instilled into their eyes to cause dilation of the pupils. Under conditions that ocular fundus is visualized, a microsyringe (25 μL volume, Hamilton) fitted with a 33 G needle was used and inserted into the vitreous cavity. To a control group, 54 of a mixture (1:9) of dimethyl sulfoxide and physiological saline was administered. […]
After 7 days from the administration of tunicamycin, general anesthesia was induced in the rats under dark adaptation by intramuscular administration of 1 mL/kg of a mixture (7:1) of a 5% (W/V) ketamine hydrochloride injection solution and a 2% xylazine hydrochloride injection solution. […] Then, using an electroretinogram (ERG) measurement apparatus (manufactured by Tomey Corporation, portable ERG&VEP LE-3000), ERGs (a-wave) were measured. Suppression ratio against reduction in ERG amplitude was subsequently calculated using an equation 4 shown below. […]

[2] = test system: spermidine-induced retinal degeneration model; assay: Spermidine-induced retinal degeneration model, ERG (a-wave) measurement; type: in vivo; settings: rats, intravitreal
Source text: Therefore, a spermidine-induced retinal degeneration model is used as a model for evaluating therapeutic agents for diseases involving retinal pigment epithelial damage, such as atrophic AMD (Invest. Ophthalmol. Vis. Sci., 48 (1), 455-463 (2007) (NPL 1); Invest. Ophthalmol. Vis. Sci. 51, ARVO E-abstract 3644 (2010); etc.). Thus, an effect of the JNK-inhibitory peptide of the present invention on photoreceptor cell damage caused by retinal pigment epithelial damage was investigated using the aforementioned model, and then compared with that obtained by the representative JNK-inhibitor, SP600125.
To a control group, 10 μL of Dulbecco PBS was administered. To a vehicle-administered group, 10 μL of a 2 mM solution of spermidine dissolved in Dulbecco PBS was administered. To a peptide A-administered group, a 4 mM solution of spermidine dissolved in Dulbecco PBS was mixed with 0.6 mg/mL peptide A dissolved in Dulbecco PBS to give a 1:1 mixture, and 10 μL of the solution was administered into the vitreous cavity. To an SP600125-administered group, spermidine was dissolved in a 0.3 mg/mL solution of SP600125 dissolved in Dulbecco PBS to give a concentration of 2 mM, and 10 μL of the solution was administered into the vitreous cavity. As spermidine, “Spermidine, Trihydrochloride” (Cat. No. 56766), purchased from Calbiochem, was used. […] As SP600125, “SP600125” (Cat. No. S5567-50 MG), purchased from Sigma Aldrich, was used.
Suppression ratios against reduction in ERG amplitude were subsequently calculated using an equation 1 shown below.
Suppression ratio against reduction in ERG amplitude (%)=((Ex−Ev)/(Ec−Ev))×100, [Equation 1]

[3] = test system: laser-induced rat choroidal neovascularization model; assay: Laser-induced rat choroidal neovascularization model, fluorescent fundus angiography; type: in vivo; settings: rats, intravitreal, 3 μg/eye, day 7 after photocoagulation
Description: As a pharmacological test model for investigating an inhibitory effect on choroidal neovascularization, a laser-induced choroidal neovascularization model is widely used (Folia Ophthalmologica Japonica, 45, 853-856 (1994)).
Photocoagulation was subsequently performed using a krypton laser photocoagulator (manufactured by NIDEK, a multicolor laser photocoagulator MC-7000). With focusing laser beam on the deep retinal layers, photocoagulation was conducted in the posterior portion of the ocular fundus at 8 spots per eye in a dispersed manner, while avoiding thick retinal blood vessels. After photocoagulation, fundus photography was performed to identify the laser-irradiated sites.
To a vehicle-administered group, 5 μL of physiological saline was administered.
Subsequently, 0.1 mL of a 10% fluorescein sodium solution was injected via the tail vein, and fluorescent fundus angiography (manufactured by Kowa, Fundus Camera Kowa PROIII) was performed. In fluorescent fundus angiography, spots at which fluorescence exposure was not observed was determined as negative (without neovascularization), and spots at which fluorescence exposure was observed were determined as positive (with neovascularization). Moreover, when there were two photocoagulation sites at which slight fluorescence exposure was observed, these photocoagulation sites were determined as positive (with neovascularization). […]

[4] = 3 μg/eye, 13 days after spermidine administration

Row | aggravated the reduction in ERG amplitude [2, 4] | SMILES | Suppression ratio against Reduction in ERG (a-Wave) amplitude (%) [1] [%] | Suppression ratio against Reduction in ERG (a-Wave) amplitude (%) ([1]; listed as peptide A) | Suppression ratio against Reduction in ERG (a-Wave) amplitude (%) [2, 4] [%] | Suppression ratio against Reduction in ERG (a-Wave) amplitude (%) ([2]; 3 μg/eye, 13 days after spermidine administration, listed as peptide A) | Suppression Ratio (%) of Choroidal Neovascularization Development [3] [%] | Suppression Ratio (%) of Choroidal Neovascularization Development ([3]; listed as peptide A) | damage suppression effect in the spermidine model [2]
1 | – | CC(C)C[C@@H](NC(=O)[C@@H](CC(N)=O)NC(=O)[C@@H](CC(C)C)NC(=O)[C@H](NC(=O)[C@H](NC(=O)[C@H]1CCCN1C(=O)[C@@H](CCCNC(=N)N)NC(=O)[C@@H](CCCCN)NC(=O)[C@H]1CCCN1C(=O)[C@@H](CCCNC(=N)N)NC(=O)[C@H]1CCCN1C(=O)[C@H]1CCCN1C(=O)[C@@H](CCCNC(=N)N)NC(=O)[C@@H](CCCNC(=N)N)NC(=O)[C@@H](CCCNC(=N)N)NC(=O)[C@@H](CCC(N)=O)NC(=O)[C@@H](CCCNC(=N)N)NC(=O)[C@@H](CCCNC(=N)N)NC(=O)[C@@H](CCCCN)NC(=O)[C@@H](CCCCN)NC(=O)[C@@H](CCCNC(=N)N)NC(=O)CN)[C@H](C)O)[C@H](C)O)C(=O)N[C@H](Cc1ccccc1)C(=O)N1CCC[C@@H]1C(=O)N[C@H](CCC(N)=O)C(=O)N[C@@H](C(=O)N1CCC[C@@H]1C(=O)N[C@H](CCCNC(=N)N)C(=O)N[C@H](CO)C(=O)N[C@H](CCC(N)=O)C(=O)N[C@H](CC(=O)O)C(=O)O)C(C)C [Peptide A] (H-G[dR][dK][dK][dR][dR][dQ][dR][dR][dR][dP][dP][dR][dP][dK][dR][dP][dT][dT][dL][dN][dL][dF][dP][dQ][dV][dP][dR][dS][dQ][dD]-OH) | 50.0 | approximately 50% | 72.7 | approximately 73% | 14.3 | approximately 14% | –
2 | approximately 18% | Oc1c2ccccc2c2c3c(cccc13)N=N2 [SP600125] | – | – | −17.6 | – | – | – | no damage suppression effect
